Columns and labels:
[1] = tested on: patients undergoing chronic hemodialysis; test: Historical cohort study of mortality and survival in chronic hemodialysis patients on intravenous paricalcitol or calcitriol; type: in vivo, human; conditions: for Mortality rate (deaths/person-years): 36-month follow-up after initiation of injectable vitamin D; for Number of deaths: 36-month follow-up, paricalcitol 18,430 person-years, calcitriol 22,057 person-years; for HR (mortality): reference calcitriol; for Crude survival at one year / Crude survival at three years / Crude survival at two years: Kaplan-Meier; for Mortality risk according to quintiles of base line PTH / Mortality risk according to quintiles of base line serum calcium: model adjusted for all covariates
Protocol: An historical cohort study was conducted of patients undergoing chronic hemodialysis in Fresenius Medical Care (FMC) dialysis facilities in the United States. Patients who initiated treatment with either paricalcitol or calcitriol beginning Jan. 1, 1999 or after, and who remained exclusively on that intravenous vitamin D formulation until the conclusion of the follow-up period on Dec. 31, 2001, were included in this study. Patients were excluded if they received any form of intravenous vitamin D prior to Jan. 1, 1999 or if they switched from one injectable vitamin D formulation to another during the study period. Patients treated exclusively with other intravenous vitamin D formulations were not studied because of small sample sizes in those groups.
The FMC data system is an Oracle database populated by the individual clinical data systems employed in each individual FMC dialysis facility. The database contains demographic, laboratory, hospitalization, and mortality information as well as detailed records of the treatments administered during each hemodialysis run since January 1995. All data were collected prospectively as part of routine patient care in over 1000 dialysis facilities throughout the United States. For this study, no additional data were retrospectively abstracted from medical records.
Upon a patient's admission to an FMC facility, demographic information including age, gender, race, date of first dialysis, cause of end stage renal disease, and diabetes status were entered into the system. Subsequently, hemodialysis prescription, laboratory tests, and injectable medications were recorded daily. Centralized labs utilized by all FMC facilities performed laboratory tests using standardized assays. Laboratory test results were automatically downloaded from the centralized laboratory to the FMC data system, minimizing the possibility of data entry errors.
Records of all medicines administered during hemodialysis included date of administration, medication name, dose, and route of administration. This information was collected and uploaded into a central database on a daily basis, and underwent routine quality assessment and control measures because of their link with billing systems. This permitted restriction of the analysis to those who initiated and remained on a single vitamin D formulation during the study period. Whenever a patient missed a hemodialysis treatment, a temporary absence or permanent discharge must be recorded in the system by the facility staff in order to complete the daily reconciliation of prescribed verses administered treatments. Therefore, all patient deaths, including date and cause of death (ICD-9 coded), were recorded in the database by the individual facilities as one type of permanent discharge. In addition, all hospitalizations are recorded as temporary absences, even if no dialysis treatment was missed. Data entered by the individual facilities underwent continuous quality improvement assessment to ensure their accuracy and completeness.
The base line for each individual patient was defined as within a three-month period before starting on paricalcitol or calcitriol. Base line laboratory values were obtained by averaging all values in the three months prior to initiating vitamin D therapy. Quintiles of base line serum calcium and phosphate levels were determined by aggregating values of all patients in the three year time period. Because of known lot-to-lot drifts in parathyroid hormone (PTH) assays, serum levels of PTH were categorized by yearly quintiles, and comparative quintiles across years were combined for the analysis.
Patient “vintage” was determined as the number of days from the initiation of chronic hemodialysis to the first day paricalcitol or calcitriol was administered. This covariate was examined both as a continuous and a categorical variable. […]

uremic rats = conditions: cited from earlier work
patients = conditions: compared with injectable calcitriol (Calcijex); cited from earlier work
[2] = tested on: patients undergoing chronic renal dialysis; conditions: use of paricalcitol; cited from earlier work
cells = conditions: in vitro; compared with paricalcitol; independent of serum calcium, phosphate, PTH; cited from earlier work

C[C@H](/C=C/[C@H](C)C(C)(C)O)[C@H]1CC[C@H]2/C(=C/C=C3C[C@@H](O)C[C@H](O)C3)CCC[C@]12C [paricalcitol, 19-Nor=−1, 25-(OH)2D2]
Mortality rate (deaths/person-years) [1]: 18.54%
Number of deaths [1]: 3417 deaths
HR (mortality), restricted population, adjusted ([1]; Caucasian diabetic patients, ages 60-70 years, vintage <100 days, arteriovenous prosthetic graft, 95% CI 0.21-0.82): 0.42
HR (mortality), restricted population, unadjusted ([1]; Caucasian diabetic patients, ages 60-70 years, vintage <100 days, arteriovenous prosthetic graft, 95% CI 0.33-0.85): 0.53
HR (mortality) ([1]; Cox model Case Mix, Study Entry Period, SMR, Dialysis Access, Base-Line Laboratory Values, N 25,471): 0.73
HR (mortality) ([1]; Cox model Case Mix, Study Entry Period, SMR, Dialysis Access, N 50,572): 0.70
HR (mortality) ([1]; Cox model Case Mix, Study Entry Period, SMR, N 50,572): 0.69
HR (mortality) ([1]; Cox model Case-Mix and Study Entry Period, N 50,572): 0.70
HR (mortality) ([1]; Cox model Case-Mix, N 50,572): 0.61
HR (mortality) ([1]; Cox model Unadjusted, N 50,916): 0.58
Crude survival at one year [1]: 82.6%
Crude survival at three years [1]: 59.3%
Crude survival at two years [1]: 68.6%
Apparent risk (survival) benefit associated with paricalcitol treatment ([1]; after progressive adjustments, vs calcitriol): ~27%
Mortality risk within each quintile of serum phosphorus ([1]; compared with the calcitriol group, adjusted model): comparatively lower
Hazard ratio in the final model (Table 3) ([1]; final model n=25,471, Ref = calcitriol): 0.733
Risk reduction for each cause of mortality by ICD-9 codes ([1]; infection, neoplasm, cardiovascular, cerebrovascular, other, vs calcitriol, p<0.01): greater than 50%
Mortality risk according to quintiles of base line PTH [1]: significantly lower risk of mortality at all levels of PTH
Mortality risk according to quintiles of base line serum calcium [1]: did not appear to have an increased risk of mortality
Mortality Rate Ratio ([1]; paricalcitol vs calcitriol, 95% CI 0.58-0.63, p<0.01): 0.60
Survival advantage over calcitriol in stratum ([1]; patients less than 40 years of age at start, event rate 9%): did not demonstrate a significant survival advantage
Hypercalcemia or hyperphosphatemia (uremic rats): without producing significant hypercalcemia or hyperphosphatemia
PTH secretion (uremic rats): suppressed PTH secretion
Incidence of elevated Ca and/or Ca X P levels (patients): statistically significantly greater
Adverse effects reported [2]: nausea, vomiting, metallic tastes, chills, fever, sepsis, palpitations, dry mouth, gastrointestinal bleeding, edema, light-headedness and pneumonia

C=C1/C(=C\C=C2/CCC[C@]3(C)[C@@H]([C@H](C)CCCC(C)(C)O)CC[C@@H]23)C[C@@H](O)C[C@@H]1O [calcitriol, 1,25 dihydroxycholecalciferol]
Mortality rate (deaths/person-years) [1]: 30.85%
Number of deaths [1]: 6805 deaths
Crude survival at one year [1]: 73.7%
Crude survival at three years [1]: 44.1%
Crude survival at two years [1]: 56.0%
Mortality risk according to quintiles of base line PTH [1]: increased with each successive quintile
Mortality risk according to quintiles of base line serum calcium [1]: increased with each successive quintile
Cell sensitization to injury (cells): sensitizes cells to ATP-depletion and iron-mediated injury

Reference: patent US20040048837A1, “Method for treatment of renal disease” (priority 2002, published 2004)
